target: recombinant eIF4E (Homo sapiens (Human), UniProt P06730); experiment: Fluorescence polarization competition assay for eIF4E binding potency; conditions: inhibition of eIF4E/EDA-m7GDP-ATTO-550 binding; calculated IC50 values, Table 4B; read-out: IC50
Summary of the method: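 IC50 derived from fluorescence polarization over an 8-point, 3-fold compound series after 30 min room-temperature equilibration in the dark. Mix: eIF4E 75 nM pre-bound 5 min to 20 nM EDA-m^7GDP-ATTO-550; buffer 20 mM Tris pH 7.5, 100 mM NaCl, 1 mM DTT, 0.02% Tween-20; DMSO 1%.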

Sequence of recombinant eIF4E (P06730 whole entry): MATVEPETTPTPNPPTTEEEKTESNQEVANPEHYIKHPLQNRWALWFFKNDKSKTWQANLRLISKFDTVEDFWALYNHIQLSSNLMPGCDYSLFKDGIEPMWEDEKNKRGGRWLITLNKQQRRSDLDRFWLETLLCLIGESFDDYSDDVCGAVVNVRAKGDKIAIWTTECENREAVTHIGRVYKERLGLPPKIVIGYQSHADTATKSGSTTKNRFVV

SMILES	IC50 [nM]
CNc1cc2c(=O)n(CCOc3ccc(Cl)cc3-c3cccc(C(=O)O)c3)c(C)nc2cn1 [compound 2006]	611
O=C(O)c1cccc(-c2cc(Cl)ccc2OCCn2c(C(F)(F)F)nc3cnc(Cl)cc3c2=O)c1 [compound 2007]	> 300000
O=C(O)c1cccc(-c2cc(Cl)ccc2OCCn2c(C(F)F)nc3cnc(Cl)cc3c2=O)c1 [compound 2008]	96.1
O=C(O)c1cccc(-c2cc(Cl)ccc2OCCn2c(C(F)F)nc3cccc(Br)c3c2=O)c1 [compound 2009]	2150
O=C(O)c1cccc(-c2cc(Cl)ccc2OCCn2c(C(F)F)nc3cncc(Br)c3c2=O)c1 [compound 2010]	1190
Cc1nc2ccc3c(c2c(=O)n1CCOc1ccc(Cl)cc1-c1cccc(C(=O)O)c1)C(=O)N(C)C3 [compound 2011]	529
O=C(O)c1cc2ccc1CCCCCc1nc3cc(C(F)(F)F)cc(Br)c3c(=O)n1CCOc1ccc(Cl)cc1-2 [compound 2013]	> 10000
O=C(O)c1cc(-c2cc(Cl)ccc2OCCn2nnc3ccccc3c2=O)ccn1 [compound 2014]	12200
N#Cc1cccc2nc(C(F)F)n(CCOc3ccc(Cl)cc3-c3cccc4c(C(=O)O)csc34)c(=O)c12 [compound 2017]	50.6
C#Cc1c(-c2cc(Cl)ccc2OCCn2c(C(F)F)nc3cccc(C#N)c3c2=O)csc1C(=O)O [compound 2034]	6.2
N#Cc1cccc2nc(C(F)F)n(CCOc3ccc(Cl)cc3-c3ccnc4c(C(=O)O)scc34)c(=O)c12 [compound 2035]	72.3
COC(=O)c1sc2c(-c3cc(Cl)ccc3OCCn3c(C)nc4cc(C(F)(F)F)cc(C#N)c4c3=O)ccnc2c1O [compound 2037]	> 1000

Now from value to compound:

IC50 [nM]	SMILES
51.1	Cc1nc2cc(C(F)(F)F)c(N3CC4(C3)CN(C3CC3)C4)c(C#N)c2c(=O)n1CCOc1ccc(Cl)cc1-c1ccnc2ccsc12 [compound 2015]
613	Cc1nc2cc(C(F)(F)F)c(CN(C)C)c(C#N)c2c(=O)n1CCOc1ccc(Cl)cc1-c1ccnc2ccsc12 [compound 2016]
24.4	Cc1nc2cc(C(F)(F)F)cc(C#N)c2c(=O)n1CCOc1ccc(Cl)cc1-c1ccc(F)c2c(C(=O)O)csc12 [compound 2018]
33	Cc1nc2cnc(N3CCN(C)C4CC43)c(C#N)c2c(=O)n1CCOc1ccc(Cl)cc1-c1cccc2c(C(=O)O)csc12 (stereo not drawn) [compound 2020]
> 1000	Cc1cc(-c2cc(CN3CCN(C)CC3)ccc2OCCn2c(C)nc3cc(F)c(CN4CCN(C)CC4)c(C#N)c3c2=O)c2scc(C(=O)O)c2n1 [compound 2027]
38.4	Cc1cc(-c2cc(N3CC(F)(F)C3)ccc2OCCn2c(C)nc3cc(C(F)(F)F)c(N4CC(F)(F)C4)c(C#N)c3c2=O)c2scc(C(=O)O)c2n1 [compound 2036]

Reference: patent US11286268B1, “EIF4E-inhibiting compounds and methods” (EFFECTOR THERAPEUTICS, INC., priority 2019, dated 2022)
